Experimental data taken from patent publication US20200315540A1, “TREATMENT OF A DISEASE OF THE GASTROINTESTINAL TRACT WITH AN IL-1 INHIBITOR” (Progenity, Inc., priority 2016, published 2020).

Experiment: Tissue, plasma and GI content pharmacokinetics of tacrolimus, oral vs intra-cecal ingestible device delivery in swine
Type: in vivo
Conditions: intra-cecally vs orally administered, 12 hours post-dose, FIG. 76
Protocol: No further randomization procedure was employed.
Animals in Group 1 received an ingestible device containing 0.8 mL of vehicle solution (80% alcohol, 20% HCO-60). Animals in Group 2 received orally […] liquid formulation of tacrolimus at 4 mg/0.8 mL per animal (Prograf: 5 mg/mL). Animals in Group 3 received intra-cecally an ingestible device containing tacrolimus at 1 mg in 0.8 mL per ingestible device. Animals in Group 4 received intra-cecally an ingestible device containing tacrolimus at 2 mg in 0.8 mL per ingestible device. Animals in Group 5 received intra-cecally an ingestible device containing tacrolimus at 4 mg in 0.8 mL per ingestible device. […]
Approximately 200˜400 mg of rectal content were collected, if available, with a fecal swab (Copan Diagnostics Nylon Flocked Dry Swabs, 502CS01). The fecal swab was pre-weighed and weighed after collection in the collection tube (Sterile Tube and Cap No Media, PFPM913S), and the sample weight was recorded. […]
For tissue necropsy, small intestine fluid and cecal fluid were collected separately from all the animals into two separate square plastic bottles, and stored at −20° C. The length and diameter of the cecum and the colon was measured from one animal in each group and recorded for reference. […] All samples were weighed, and the tissue sample weights were recorded. […]

mean concentration in the cecum tissue and the proximate colon tissue: higher
SMILES: C=CC[C@@H]1/C=C(\C)C[C@H](C)C[C@H](OC)[C@H]2O[C@@](O)(C(=O)C(=O)N3CCCC[C@H]3C(=O)O[C@H](/C(C)=C/[C@@H]3CC[C@@H](O)[C@H](OC)C3)[C@H](C)[C@@H](O)CC1=O)[C@H](C)C[C@@H]2OC [tacrolimus]
